Laboratory results reported in PubChem BioAssay AID588784 (Southern Research Specialized Biocontainment Screening …, 2011).
Where “and” joins values, the source holds several entries; their conditions need not be identical. Equal values may be shown once. Calls of active or inactive are those of the source. No rule for the calls is given here.

System: HSV-infected cells, viral DNA qPCR Ct reduction
Assay: HSV genome copy increase, qPCR Ct shift, cell-based, HSV replication enhancer project, confirmation (AID 588784)
Settings: at 10 µM; active compounds read high

With `COc1cc(C(=O)OCCCN2CCCN(CCCOC(=O)c3cc(OC)c(OC)c(OC)c3)CC2)cc(OC)c1OC` the Ct reduction was -0.309 (inactive) and -0.64 (inactive).
